Key:
Assay in all cases: Kinase panel profiling at 1 µmol/L (MSA or IMAP), percentage inhibition
Assay type in all cases: biochemical
[1] = target: panel of 255 wild-type kinases (Homo sapiens, UniProt P19525); conditions: kinase PKR; 1 µmol/L single concentration; read-out: %-inhibition at 1 µmol/L, PKR
[2] = target: panel of 255 wild-type kinases (Homo sapiens, UniProt Q9HCP0); conditions: kinase CK1γ1; 1 µmol/L single concentration; read-out: %-inhibition at 1 µmol/L, CK1γ1
[3] = target: panel of 255 wild-type kinases (Homo sapiens, UniProt Q9Y5S2); conditions: MRCKβ; 1 µmol/L single concentration; read-out: %-inhibition, MRCKβ
[4] = target: T1, panel of 255 wild-type kinases (Homo sapiens, UniProt Q92630); conditions: kinase DYRK2; 1 µmol/L single concentration; read-out: %-inhibition at 1 µmol/L, DYRK2
T1 sequence (Q92630 1-601): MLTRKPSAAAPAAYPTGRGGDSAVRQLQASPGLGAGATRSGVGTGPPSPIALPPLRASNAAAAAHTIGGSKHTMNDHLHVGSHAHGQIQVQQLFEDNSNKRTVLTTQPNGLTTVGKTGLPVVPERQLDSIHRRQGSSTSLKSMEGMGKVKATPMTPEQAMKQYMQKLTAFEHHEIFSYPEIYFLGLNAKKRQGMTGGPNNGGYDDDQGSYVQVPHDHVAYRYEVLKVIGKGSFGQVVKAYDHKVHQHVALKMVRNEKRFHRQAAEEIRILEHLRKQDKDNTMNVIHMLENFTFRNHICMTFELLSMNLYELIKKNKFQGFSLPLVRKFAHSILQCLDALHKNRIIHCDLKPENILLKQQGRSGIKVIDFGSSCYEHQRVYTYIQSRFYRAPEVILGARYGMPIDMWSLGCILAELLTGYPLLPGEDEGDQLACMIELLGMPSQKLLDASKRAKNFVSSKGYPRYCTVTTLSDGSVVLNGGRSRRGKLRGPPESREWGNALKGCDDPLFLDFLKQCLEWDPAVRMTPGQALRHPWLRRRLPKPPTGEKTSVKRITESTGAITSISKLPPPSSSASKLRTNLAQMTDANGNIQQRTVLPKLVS

[5] = target: panel of 255 wild-type kinases (Homo sapiens, UniProt P42685); conditions: kinase FRK; 1 µmol/L single concentration; read-out: %-inhibition at 1 µmol/L, FRK
[6] = target: T2, panel of 255 wild-type kinases (Homo sapiens, UniProt Q8IWQ3); conditions: BRSK2 kinase assay; 1 µmol/L single concentration; read-out: %-inhibition BRSK2
T2 sequence (Q8IWQ3 1-736): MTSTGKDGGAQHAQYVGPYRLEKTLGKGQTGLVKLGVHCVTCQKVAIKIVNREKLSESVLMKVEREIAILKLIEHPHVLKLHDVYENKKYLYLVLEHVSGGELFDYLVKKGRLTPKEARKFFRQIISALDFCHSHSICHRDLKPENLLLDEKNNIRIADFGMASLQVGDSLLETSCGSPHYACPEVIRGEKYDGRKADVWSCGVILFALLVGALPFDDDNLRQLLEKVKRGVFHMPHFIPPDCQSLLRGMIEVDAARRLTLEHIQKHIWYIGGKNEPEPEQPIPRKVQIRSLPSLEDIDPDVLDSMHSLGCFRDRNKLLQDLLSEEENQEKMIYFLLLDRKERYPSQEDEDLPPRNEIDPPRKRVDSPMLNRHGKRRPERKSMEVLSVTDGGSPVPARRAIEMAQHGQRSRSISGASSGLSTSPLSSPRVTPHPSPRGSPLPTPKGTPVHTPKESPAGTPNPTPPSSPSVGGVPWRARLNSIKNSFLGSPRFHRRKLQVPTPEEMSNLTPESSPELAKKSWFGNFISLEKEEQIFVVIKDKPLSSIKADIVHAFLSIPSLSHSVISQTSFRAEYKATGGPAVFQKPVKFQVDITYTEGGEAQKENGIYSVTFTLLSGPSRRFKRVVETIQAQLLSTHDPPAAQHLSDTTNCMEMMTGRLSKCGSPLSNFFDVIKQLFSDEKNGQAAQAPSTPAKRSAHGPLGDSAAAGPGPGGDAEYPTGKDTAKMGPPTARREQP

[7] = target: panel of 255 wild-type kinases (Homo sapiens, UniProt Q16644); conditions: MAPKAPK3; 1 µmol/L single concentration; read-out: %-inhibition, MAPKAPK3
[8] = target: panel of 255 wild-type kinases (Homo sapiens, UniProt Q9Y243); conditions: AKT3 kinase assay; 1 µmol/L single concentration; read-out: %-inhibition AKT3
[9] = target: panel of 255 wild-type kinases (Homo sapiens, UniProt P27448); conditions: MARK3; 1 µmol/L single concentration; read-out: %-inhibition, MARK3
[10] = target: panel of 255 wild-type kinases (Homo sapiens, UniProt Q9Y6E0); conditions: MST3; 1 µmol/L single concentration; read-out: %-inhibition, MST3
[11] = target: panel of 255 wild-type kinases (Homo sapiens, UniProt Q16620); conditions: kinase TRKB; 1 µmol/L single concentration; read-out: %-inhibition at 1 µmol/L, TRKB
[12] = target: panel of 255 wild-type kinases (Homo sapiens, UniProt P68400); conditions: kinase CK2α1/β; 1 µmol/L single concentration; read-out: %-inhibition at 1 µmol/L, CK2α1/β

Row | inhibition at 1 µM [1] [%] | inhibition at 1 µM [2] [%] | inhibition at 1 µM [3] [%] | inhibition at 1 µM [4] [%] | inhibition at 1 µM [5] [%] | inhibition at 1 µM [6] [%] | inhibition at 1 µM [7] [%] | inhibition at 1 µM [8] [%] | inhibition at 1 µM [9] [%] | inhibition at 1 µM [10] [%] | inhibition at 1 µM [11] [%] | inhibition at 1 µM [12] [%] | Compound
1 | 8 | 1.83 | 1.9 | -0.768 | 82 | 14 | -22 | -2.71 | -8 | 8 | 94 | -2.52 | CO[C@]1(C(=O)N[C@@H](C)c2ccc(-n3cc(F)cn3)nc2)CC[C@H](c2nc(C)cc(Nc3cc(C)[nH]n3)n2)CC1 [pralsetinib]
2 | 0.94 | 12 | -3.65 | 66 | 13 | 35 | -12 | -0.71 | 45 | 6 | 16 | -1.82 | COc1ccc(CN2C3CC2CN(c2ccc(-c4cc(OCC(C)(C)O)cn5ncc(C#N)c45)cn2)C3)cn1 [selpercatinib]
3 | 1.47 | -2.69 | 0.656 | -2.7 | -3 | 4 | -14 | -6.42 | -6 | 3 | 4 | -5 | Cn1cnc2c(F)c(Nc3ccc(Br)cc3Cl)c(C(=O)NOCCO)cc21 [selumetinib]
4 | 3.37 | 11 | 2 | 8.45 | -2.17 | 7 | -3 | -4.58 | -10 | 10 | 6 | -4 | Cc1cc(Nc2ncnc3ccc(NC4=NC(C)(C)CO4)cc23)ccc1Oc1ccn2ncnc2c1 [tucatinib]

Row | Compound | inhibition at 1 µM [1] [%] | inhibition at 1 µM [2] [%] | inhibition at 1 µM [3] [%] | inhibition at 1 µM [4] [%] | inhibition at 1 µM [5] [%] | inhibition at 1 µM [6] [%] | inhibition at 1 µM [7] [%] | inhibition at 1 µM [8] [%] | inhibition at 1 µM [9] [%] | inhibition at 1 µM [10] [%] | inhibition at 1 µM [11] [%] | inhibition at 1 µM [12] [%]
5 | FC(F)(F)c1ccc(CNc2ccc(Cc3c[nH]c4ncc(Cl)cc34)cn2)cn1 [pexidartinib] | -10 | 10 | 2.43 | 24 | 5.44 | 5.28 | -15 | -6 | 12 | 5 | 75 | 0.256
6 | CCn1c(=O)c(-c2cc(NC(=O)Nc3ccccc3)c(F)cc2Br)cc2cnc(NC)cc21 [ripretinib] | -6 | -0.282 | -1.41 | 4.57 | 87 | 8 | -16 | -6.42 | 1.78 | -4 | 64 | 1
7 | C=CC(=O)N1CCC([C@@H]2CCNc3c(C(N)=O)c(-c4ccc(Oc5ccccc5)cc4)nn32)CC1 [zanubrutinib] | -1.41 | -3.73 | -1.23 | 13 | 82 | 0.0746 | -12 | -3 | -1.28 | 0.0873 | 6.58 | -2
